Data as given in PubChem BioAssay (NCI).
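Briefly, cells in 96-well plates were exposed to five compound concentrations for 48 h, and endpoints were estimated by linear interpolation. At the GI50, growth is halved. TGI: total growth inhibition.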

Assays:
Experiment in all cases: inhibition of tumour cell growth, NCI panel, 48 h
[1] = system: OVCAR-3 ovarian
[2] = system: SNB-19 CNS
[3] = system: SNB-75 CNS
[4] = system: MOLT-4 leukemia
[5] = system: NCI-H226 lung
[6] = system: UACC-62 melanoma
[7] = system: EKVX NSCLC
[8] = system: HCT-116 colon
[9] = system: BT-549 breast
[10] = system: A498 renal

| SMILES | TGI [1] [µM] | TGI [2] [µM] | TGI [3] [µM] | TGI [4] [µM] | TGI [5] [µM] | TGI [6] [µM] | TGI [7] [µM] | TGI [8] [µM] | TGI [9] [µM] | TGI [10] [µM] | GI50 [1] [µM] | GI50 [9] [µM] | GI50 [3] [µM] | GI50 [4] [µM] | GI50 [6] [µM] | GI50 [10] [µM] | GI50 [2] [µM] | GI50 [7] [µM] | GI50 [8] [µM] | GI50 [5] [µM] |
| --- | --- | --- | --- | --- | --- | --- | --- | --- | --- | --- | --- | --- | --- | --- | --- | --- | --- | --- | --- | --- |
| COc1ccc(C2NCCc3c2[nH]c2ccccc32)cc1 (centres undefined) | > 100 | > 100 | > 100 | > 100 | > 100 | > 100 | > 100 | > 100 | – | – | – | – | – | – | – | – | – | – | – | – |
| CCCCCCCCCCCCCCCCS(=O)(=O)c1ccc(NN)cc1 | > 10 | > 10 | – | > 10 | – | > 10 | > 10 | > 10 | > 10 | > 10 | – | – | – | – | – | – | – | – | – | – |
| c1cnc2[nH]cc(-c3csc(-c4cn(CCCN5CCCCC5)c5ccccc45)n3)c2c1 | 2.96 | – | 2.84 | 3.52 | – | 3.3 | – | – | 3.24 | 3.38 | 1.54 | 1.68 | 1.21 | 1.82 | 1.7 | 1.83 | – | – | – | – |
| COc1ccc2[nH]c3c(=O)[nH]ncc3c2c1 | > 100 | > 100 | 57.4 | > 100 | > 100 | > 100 | > 100 | > 100 | – | > 100 | – | – | – | – | – | – | – | – | – | – |
| COc1nc2c(c(O)c(C)c(=O)n2OC2OC(COC(C)=O)C(OC(C)=O)C(OC(C)=O)C2OC(C)=O)c(=O)n1C (centres undefined) | – | > 100 | > 100 | > 100 | > 100 | > 100 | > 100 | > 100 | – | – | – | – | – | – | – | – | – | – | – | – |
| Cc1cc(=O)oc2cc(OCCn3c(C)nn(-c4ccc(Cl)cc4)c3=O)ccc12 | 15.2 | > 100 | 15.1 | > 100 | – | > 100 | > 100 | > 100 | 99.4 | 31.9 | 3.25 | 16.5 | 2.22 | 4.71 | 1.99 | 1.13 | 5.37 | > 100 | 3.57 | – |
| Fc1cc(-c2nnc3n2N=C(c2ccc(Cl)cc2Cl)CS3)c(Cl)cc1Cl | 88.1 | > 100 | > 100 | > 100 | > 100 | 99.6 | > 100 | 68.7 | – | – | 22.8 | – | > 100 | 75.1 | 24.9 | – | 25.4 | 58.5 | 25.4 | 36.5 |
| O=C1C(c2ccccc2)=C(c2ccccc2)[C@H](c2ccccc2)[C@]1(Cc1nnn(-c2ccc([N+](=O)[O-])cc2)c1N1CCOCC1)c1ccccc1 | > 37.5 | > 37.5 | > 37.5 | > 37.5 | – | > 37.5 | > 37.5 | > 37.5 | – | > 37.5 | – | – | – | – | – | – | – | – | – | – |
| CC[P+]1(CC)CCCC1 | > 100 | > 100 | > 100 | > 100 | – | > 100 | > 100 | – | – | – | – | – | – | – | – | – | – | – | – | – |
| CC1(C)CC(=O)c2c(oc3cc(O)c(O)cc23)C1 | – | > 100 | > 100 | > 100 | – | 32 | – | – | – | > 100 | – | – | – | – | – | – | – | – | – | – |
| O=C(O)[C@@H]1CCCC[C@@H]1C(=O)N(C1CCCCC1)C1CCCCC1 | > 100 | – | > 100 | > 100 | > 100 | > 100 | > 100 | > 100 | – | > 100 | – | – | – | – | – | – | – | – | – | – |
| COC(=O)C1(F)C(=O)NC(=O)NC1OC (centres undefined) | > 100 | > 100 | > 100 | > 100 | > 100 | > 100 | – | 94.7 | – | > 100 | – | – | – | – | – | – | – | – | – | – |
| Nc1ccn([C@@H]2C(F)=C(CO)[C@@H](O)[C@H]2O)c(=O)n1 | > 100 | > 100 | > 100 | > 100 | > 100 | > 100 | > 100 | > 100 | > 100 | – | 4.17 | 23.5 | 9.94 | 1.85 | 3.78 | – | 2.81 | 26.8 | 0.395 | 11.5 |
| CC12OC(C(=O)C13CCC3)C1C(=O)c3ccccc3C(=O)C12 (centres undefined) | – | > 100 | > 100 | > 100 | > 100 | – | > 100 | > 100 | > 100 | – | – | > 100 | > 100 | 37.6 | – | – | > 100 | > 100 | > 100 | 38.4 |
| O=[N+]([O-])C1C2C=CC(C2)[C@H]1c1ccc(Cl)cc1Cl (some centres undefined) | – | > 100 | > 100 | > 100 | > 100 | – | – | > 100 | – | > 100 | – | – | – | – | – | – | – | – | – | – |
| C/C(=N/NC(=O)CC(=O)N(C(=O)c1ccccc1Cl)c1ccc(C)cc1)c1cc2ccccc2oc1=O | > 100 | > 100 | > 100 | – | > 100 | > 100 | > 100 | > 100 | – | > 100 | – | – | – | – | – | – | – | – | – | – |
| COc1cc2cccc(N=Cc3c(Br)ccc(OC)c3OC(C)C)c2cc1OC | > 100 | > 100 | 89.3 | > 100 | – | > 100 | > 100 | 96 | – | > 100 | – | – | – | – | – | – | – | – | – | – |
| C[N+](C)=c1nc(N2CCOCC2)ss1 | – | > 100 | – | > 100 | > 100 | > 100 | > 100 | > 100 | – | > 100 | – | – | – | – | – | – | – | – | – | – |
| CCCCCCCCCC(=O)Oc1cccc2onc(C)c12 | > 100 | > 100 | > 100 | > 100 | > 100 | > 100 | > 100 | > 100 | – | – | – | – | – | – | – | – | – | – | – | – |
| Cc1nnc(N=Nc2c(O)[nH]c3ccccc23)n1N | > 100 | > 100 | > 100 | > 100 | > 100 | > 100 | > 100 | > 100 | – | > 100 | – | – | – | – | – | – | – | – | – | – |
| COc1cc(O)c(C(C)=O)c(O)c1 | > 100 | – | > 100 | – | – | > 100 | > 100 | > 100 | – | > 100 | – | – | – | – | – | – | – | – | – | – |
| CC1=C(C(=O)CC(=O)C(=O)NC2C3CC4CC(C3)CC2C4)Sc2ccccc2N1 (centres undefined) | > 100 | > 100 | > 100 | – | – | > 100 | > 100 | > 100 | – | > 100 | – | – | – | – | – | – | – | – | – | – |
